Experimental data from patent US20080081078A1, “Prevention of Cell Proliferation by Inhibiting Myosin Light Chain Kinase” (The Board of Trustees of the University of Illinois, priority 2006, published 2008).
*1 amine or outer side, *2 acyl side, *3 side chain or, on linkers, in order; H or OH if unused. Where a SMILES comes first, the peptide text is derived from it. Bridges are numbered along the chain shown (N, C = ends). Roman numbers before positions name the chains, in order. [ ]: non-standard residue; d: D form. The star is where a group is joined. Actinocin(9to1) = Cc1c2oc3c(C)ccc(C(=O)[*:1])c3nc-2c(C(=O)[*:2])c(N)c1=O; NMeV = CN[C@H](C(=O)O)C(C)C; Cbz = O=C(OCc1ccccc1)*; Sar = CNCC(=O)O; CH2F = FC*

What was measured:
[1] = test system: NIH 3T3 cells; assay: Cell death in NIH 3T3 cells; format: cell-based; conditions: data not shown
[2] = test system: MLC20 phosphorylation; assay: MLC20 phosphorylation by urea gel/Western blotting in NIH 3T3 fibroblasts; format: cell-based; conditions: 500 nM actinomycin D, 0-24 hours
Protocol: NIH 3T3 fibroblasts were obtained from ATCC and were grown in Dulbecco's Modified Eagle Medium (DMEM) (Gibco BRL, Gaithersburg, Md.) supplemented with 10% FBS and 1% penicillin and streptomycin in a 37° C. incubator. 3T3 cells were treated with 500 nM actinomycin D in DMEM containing 0.5% FBS without antibiotics for the 0, 2, 4, 8, 16, or 24 hours. Cells were then washed with phosphate buffered saline (PBS). Floating cells were collected by centrifugation and combined with attached cells that were harvested by trypsinization. MLC20 phosphorylation was quantified be Western blotting with an anti-MLC20 antibody (FIG. 1). In short, the harvested cells were treated with ice cold 10% TCA, 10 mM DTT to precipitate the cellular proteins. The pellets were washed with acetone, dissolved in 9 M urea, 10 mM DTT, 20 mM Tris, pH 7.5 and separated using glycerol-urea polyacrylamide gel electrophoresis (PAGE). […] Protein bands were visualized with ECL reagent and the stoichiometry of phosphorylation (mol PO4/mol MLC20) was calculated as described (Obara et al., 1989, “Okadaic acid, a phosphatase inhibitor, produces a Ca2+ and calmodulin-independent contraction of lamb tracheal smooth muscle,” Pfluger's Archiv. 414: 134-138).

[3] = test system: MLC20 phosphorylation; assay: MLC20 phosphorylation by urea gel/Western blotting in smooth muscle cells (SMC); format: cell-based, pig
Protocol: NIH 3T3 fibroblasts were obtained from ATCC and were grown in Dulbecco's Modified Eagle Medium (DMEM) (Gibco BRL, Gaithersburg, Md.) supplemented with 10% FBS and 1% penicillin and streptomycin in a 37° C. incubator. 3T3 cells were treated with 500 nM actinomycin D in DMEM containing 0.5% FBS without antibiotics for the 0, 2, 4, 8, 16, or 24 hours. Cells were then washed with phosphate buffered saline (PBS). Floating cells were collected by centrifugation and combined with attached cells that were harvested by trypsinization. MLC20 phosphorylation was quantified be Western blotting with an anti-MLC20 antibody (FIG. 1). In short, the harvested cells were treated with ice cold 10% TCA, 10 mM DTT to precipitate the cellular proteins. The pellets were washed with acetone, dissolved in 9 M urea, 10 mM DTT, 20 mM Tris, pH 7.5 and separated using glycerol-urea polyacrylamide gel electrophoresis (PAGE). The proteins were transferred to nitrocellulose, the un-, mono-, and di-phosphorylated forms of MLC20 were identified using an affinity purified antibody to MLC20 and horseradish peroxidase-linked secondary antibody (Jackson ImmunoResearch, West Grove, Pa.). Protein bands were visualized with ECL reagent and the stoichiometry of phosphorylation (mol PO4/mol MLC20) was calculated as described (Obara et al., 1989, “Okadaic acid, a phosphatase inhibitor, produces a Ca2+ and calmodulin-independent contraction of lamb tracheal smooth muscle,” Pfluger's Archiv. 414: 134-138).
(§1) The stoichiometry of MLC20 phosphorylation (FIG. 1B, inset) was quantified using the urea gel/Western blotting method described above in untreated (Un) pig pulmonary artery smooth muscle cells (SMC) and SMC treated with 10 μM dexamethasone (Dex), 10 μM actinomycin D (ActD), 100 μM cycloheximide (Chx), 2 μM camptothecin (Cam), and 100 μM etoposide (Eto) for 24 hrs (mean+/−SE, n=3).
(§2) Next, in order to determine whether MLC-DP can trigger cell death, SMC were treated with ML-7 or KT5926, two inhibitors of MLCK (Nakanishi et al., 1990; Garcia, 1998; and Bain et al., 2003).
(§3) SMC cells were either treated with 10 μM cytochalasin D (CytD) or grown on the non-ionic substrate polyHema to prevent attachment.

[4] = test system: pig pulmonary artery smooth muscle cells; assay: Cell death / apoptosis in smooth muscle cells (SMC); format: cell-based
Protocol: as §1, §2, §3
SMC were left untreated, treated with ML-7 alone for 16 hours or treated with 50 μM z-VAD-fmk (caspase) for 1 hr followed by 20 μM ML-7 for 16 hours. […] The results represent the mean+/−SE for 3 independent experiments and * indicates a p value <0.05 using a paired T test.

[5] = test system: SMC; assay: TUNEL staining of SMC; format: cell-based, pig
Protocol: Also, cells were treated with 50 μM z-VAD-fmk for 1 hour, 20 μM ML-7 for 4 hours or 50 μM z-VAD-fmk for 1 hours followed by 20 μM ML-7 for 4 hours (FIG. 5B). The cells were then fixed and stained with TUNEL reagent and DAPI.

[6] = 24 hrs, 10 μM Dex, 10 μM ActD, 100 μM Chx, 2 μM Cam, 100 μM Eto

CCCOc1ccc2c(c1)c1c3c(c4c5ccccc5n5c4c1n2[C@H]1C[C@](O)(C(=O)OC)[C@]5(C)O1)CNC3=O (relative stereo) [KT5926, [(8R*,9S*,11S*)-(−)9-hydroxy-9-methoxycarbonyl-8-methyl-14-n-propoxy-2,3,9,10-tetrahydro-8,11-epoxy, 1H,8H, 11H-2,7b,11a-triazadibenzo [a,g]cycloocta [cde]trinden-1-one]
cell death [1]: cell death, including genome digestion

Cc1c2oc3c(C)ccc(C(=O)N[C@@H]4C(=O)N[C@H](C(C)C)C(=O)N5CCC[C@H]5C(=O)N(C)CC(=O)N(C)[C@@H](C(C)C)C(=O)O[C@@H]4C)c3nc-2c(C(=O)N[C@@H]2C(=O)N[C@H](C(C)C)C(=O)N3CCC[C@H]3C(=O)N(C)CC(=O)N(C)[C@@H](C(C)C)C(=O)O[C@@H]2C)c(N)c1=O [actinomycin D] (I: T[dV]P[Sar][NMeV] / II: T[dV]P[Sar][NMeV]; ester I:1-I:C, II:1-II:C; linker I:N-II:N via Actinocin(9to1))
MLC20 phosphorylation [2]: initial increase in MLC20 phosphorylation that was followed by MLC20 dephosphorylation | MLC20 phosphorylation [3, 6]: dephosphorylated

CC[C@@]1(O)C(=O)OCc2c1cc1n(c2=O)Cc2cc3ccccc3nc2-1 [camptothecin]
MLC20 phosphorylation [3, 6]: dephosphorylated

C[C@@H]1C[C@@H]([C@H](O)CC2CC(=O)NC(=O)C2)C(=O)[C@@H](C)C1 [cycloheximide]
MLC20 phosphorylation [3, 6]: dephosphorylated

C=C1[C@@H](C)[C@H]2[C@H](Cc3ccccc3)NC(=O)[C@]23[C@H](OC(C)=O)/C=C/[C@@](C)(O)C(=O)[C@@H](C)C/C=C/[C@H]3[C@@H]1O [cytochalasin D]
MLC20 phosphorylation ([3]; 10 μM cytochalasin D overnight, vs untreated): significant decreases | cell death ([4]; SMC, 10 μM cytochalasin D overnight, vs untreated): significant increases

COC(=O)C[C@H](NC(=O)[C@H](C)NC(=O)[C@@H](NC(=O)OCc1ccccc1)C(C)C)C(=O)CF [z-VAD-fmk] (Cbz-Val-Ala-Asp(OMe)-CH2F)
number of apoptotic cells (FACS) ([4]; 50 μM z-VAD-fmk 1 hr then 20 μM ML-7 16 hours, vs ML-7 alone): significant decrease | TUNEL positive nuclei in ML-7 treated cells ([5]; 50 μM z-VAD-fmk 1 hour then 20 μM ML-7 4 hours): decreased the number of TUNEL positive nuclei | TUNEL positive nuclei ([5]; single agent: 50 μM z-VAD-fmk 1 hour or 20 μM ML-7 4 hours): very few TUNEL positive nuclei
